Reference: article PMC3528830 (ACS chemical biology, 2012)

What was measured:
[1] = tested on: r(CUG)10-MBNL1 complex; assay: qTR-FRET assay, disruption of pre-formed r; format: biochemical; conditions: read-out: IC50 for r(CUG)-MBNL1, pre-formed r(CUG)10-MBNL1 complex, displacement
[2] = biological target: tRNA; assay: RNA binding assay; design: species or system yeast; conditions: read-out: tRNA Kd
[3] = biological target: r(CUG)12×2; conditions: read-out: r(CUG)12×2 Kd; data taken from a previous report; cited from earlier work

Molecule	IC50 [1] [nM]	Kd [2] [nM]	Kd [3] [nM]
NC1C(O)[C@H](OC2[C@H](N)CC(N)[C@@H](O[C@H]3OC(CNC(=O)CCCc4cn(CCCNC(=S)Nc5ccc(-c6c7ccc(=O)cc-7oc7cc(O)ccc67)c(C(=O)O)c5)nn4)[C@@H](O)[C@H](O)C3O)[C@@H]2O)OC(CO)[C@@H]1O (stereo partly shown) [FITC-K]	> 250000	> 10000	1000 ± 250
MBNL1: muscleblind-like 1 protein, RNA splicing regulator (protein, UniProt Q9NR56 1-388, looked up) Muscleblind-like protein 1: MAVSVTPIRDTKWLTLEVCREFQRGTCSRPDTECKFAHPSKSCQVENGRVIACFDSLKGRCSRENCKYLHPPPHLKTQLEINGRNNLIQQKNMAMLAQQMQLANAMMPGAPLQPVPMFSVAPSLATNASAAAFNPYLGPVSPSLVPAEILPTAPMLVTGNPGVPVPAAAAAAAQKLMRTDRLEVCREYQRGNCNRGENDCRFAHPADSTMIDTNDNTVTVCMDYIKGRCSREKCKYFHPPAHLQAKIKAAQYQVNQAAAAQAAATAAAMTQSAVKSLKRPLEATFDLGIPQAVLPPLPKRPALEKTNGATAVFNTGIFQYQQALANMQLQQHTAFLPPVPMVHGATPATVSAATTSATSVPFAATATANQIPIISAEHLTSHKYVTQM	–	–	250
